Read-outs that look alike come from different tables or passages of the source.
Tests used:
HCMV NO protease = target: T1, HCMV NO protease (Human cytomegalovirus, UniProt P16753); test: HCMV NO Protease Assay (fluorogenic substrate cleavage); format: biochemical; settings: HCMV NO protease 100 nM, substrate 5 μM, pH 8, 2.5 h at 30°
T1 construct: HCMV NO protease
Experimental: This particular assay determines the ability of a test compound to inhibit the activity (IC50) of HCMV protease. More specifically, in the assay described herein, the inhibitory activity of the test compound is evaluated on the basis of its ability to interfere with the HCMV NO protease cleavage of a fluorogenic peptide substrate which in turn is based on the maturation cleavage site of the enzyme.
1. HCMV NO Protease Assay
Material & Methods: Fluorescence measurements were recorded on a Perkin-Elmer LS-50B spectrofluorimeter equipped with a plate reader accessory. UV measurements were recorded on a Thermomax® microplate reader from Molecular Devices Corporation, Menlo Park, Calif., USA.
HCMV NO protease was assayed with an internally quenched fluorogenic substrate based on the maturation cleavage site (Abz-[…](3-NO2)R--OH, kcat /KM =260 M^-1 s^-1). The fluorescence increase upon cleavage of the Ala-Ser amide bond was monitored using excitation λ=312 nm (slit 2.5 nm) and emission λ=415 nm (slit 5 nm). A protocol adaptable to a 96-well plate format was designed for the determination of IC50 values of inhibitors.
After this period, enzymatic hydrolysis of the fluorogenic substrate in the absence of inhibitor led to about a 30% conversion. Quenching was not required before fluorescence measurement since the total scanning time by the plate reader accessory was brief relative to the duration of the reaction. The aqueous incubation buffer contained 50 mM tris(hydroxymethyl)aminomethane.HCl pH 8, 0.5M Na2 SO4, 50 mM NaCl, 0.1 mM EDTA, 1 mM tris(2-carboxyethyl)phosphine.HCl, 3% v/v DMSO and 0.05% w/v casein. The final concentrations of HCMV NO protease (expressed in terms of total monomer concentration) and substrate were 100 nM and 5 μM respectively. IC50 values were obtained through fitting of the inhibition curve to a competitive inhibition model using SAS NLIN procedure. The mode of inhibition was determined by measurements of the initial rates (in cuvettes) at various substrate concentrations in the buffer as described above. The IC50 values listed in the following tables were obtained according to this assay.

[1] = Cytotoxicity, tetrazolium salt (MTT) metabolic assay; format: cell-based; settings: cytotoxic effects, read-out: TC50 (the source's name)
Experimental: Cytotoxic effects noted as TC50 in the following tables were determined according to the tetrazolium salt (MTT) metabolic assay, F. Denizot and F. Lang, J. Immun. Meth., 1986, 89, 271.

[2] = test system: HCMV (strain AD169, ATCC VR-538); test: Plaque Reduction Assay (PRA) in HCMV-infected Hs-68 cells; format: cell-based, human cytomegalovirus (HCMV)
Experimental: B. Plaque Reduction Assay (PRA):
Hs-68 cells (ATCC # CRL 1635) were seeded in 12-well plates at 83,000 cells/well in 1 mL of DMEM medium (Gibco Canada Inc.) supplemented with 10% fetal bovine serum (FBS, Gibco Canada Inc.). The plates were incubated for 3 days at 37° to allow the cells to reach 80-90% confluency prior to the assay.
The medium was removed from the cells by aspiration. The cells were then infected with approximately 50 PFU of HCMV (strain AD169, ATCC VR-538) in DMEM medium supplemented with 5% inactivated FBS (assay medium). (DMEM medium is commercially available and has been described by R. Dulbecco et al., Virology 1959, 8, 396.) The virus was allowed to adsorb to cells for 2 h at 37°. Following viral adsorption, the medium was removed from the wells by aspiration. The cells were then incubated with or without 1 mL of appropriate concentrations of test reagent in assay medium. Occasionally, test compounds were added 24 h post-infection. After 4 days of incubation at 37°, the medium was exchanged with fresh medium containing test compound and 4 days later the cells were fixed with 1% aqueous formaldehyde and stained with a 2% violet solution in 20% ethanol in water. Microscopic plaques were counted using a stereomicroscope. Drug effects were calculated as a percent reduction in the number of plaques in the presence of each drug concentration compared to the number observed in the absence of drug. Ganciclovir was used as a positive control in all experiments.

[3] = Human betaherpesvirus 5, Hs68, 192 h, plaque reduction, HCMV strain AD169, Hs-68 cells, 8 days, read-out: EC50
[4] = Human betaherpesvirus 5, AD169, Hs68, 192 h

T1 sequence (P16753 1-256): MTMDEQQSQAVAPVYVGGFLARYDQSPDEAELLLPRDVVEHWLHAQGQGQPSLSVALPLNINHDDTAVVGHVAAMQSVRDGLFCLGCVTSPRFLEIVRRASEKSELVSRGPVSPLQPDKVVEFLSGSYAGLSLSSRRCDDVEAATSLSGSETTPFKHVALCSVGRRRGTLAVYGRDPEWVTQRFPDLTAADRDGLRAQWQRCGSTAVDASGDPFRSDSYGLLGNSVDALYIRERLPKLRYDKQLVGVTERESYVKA

Row | SMILES | IC50 (HCMV NO protease) | CC50 [1] | EC50 [2, 3] | EC50 [2, 4]
1 | CC[C@@H](NC(=O)N1C(=O)C[C@@H]1CN1CCOCC1)c1ccccc1 [Entry 205] | 9.4 µM |  |  | 
2 | CN(Cc1ccc(C(F)(F)F)cc1)C(=O)N1C(=O)C[C@@H]1CSc1nccn1C [Entry 314] | 5.5 µM | > 250 µM | > 250 µM | 
3 | CC[C@@H](NC(=O)N1C(=O)[C@@H](C)[C@@H]1CSc1ccc(OC)cc1)c1ccccc1 [Entry 122] | 4.8 µM | > 250 µM | > 250 µM | 
4 | CC[C@@H](NC(=O)N1C(=O)C[C@@H]1COC(C)=O)c1ccccc1 [Entry 132] | 3 µM | > 250 µM | 210 µM | 
5 | CN(Cc1ccc(C#N)cc1)C(=O)N1C(=O)C[C@@H]1CSc1ncccn1 [Entry 312] | 4.7 µM | > 250 µM | 100 µM | 
6 | CC(=O)OC[C@H]1CC(=O)N1C(=O)NCc1ccncc1 [Entry 207] | 46 µM |  |  | 
7 | COC(=O)c1ccc(CN(C)C(=O)N2C(=O)C[C@@H]2CSc2nccc(C)n2)cc1 [Entry 307] | 3.5 µM | > 250 µM | 105 µM | 
8 | CN(C(=O)N1C(=O)C[C@@H]1CSc1ncccn1)c1ccccc1 [Entry 306] | 22 µM |  |  | 
9 | CC[C@@H](NC(=O)N1C(=O)[C@@H](C)[C@@H]1COc1ccccc1)c1ccccc1 [Entry 102] | 2.7 µM | > 250 µM | > 250 µM | 
10 | CC[C@@H](NC(=O)N1C(=O)C[C@@H]1CS(=O)(=O)c1ccccc1)c1ccccc1 [Entry 144] | 1.9 µM | 58 µM | 5 µM | 
11 | CC[C@@H](NC(=O)N1C(=O)C[C@@H]1CSc1nc2ccccc2s1)c1ccccc1 [Entry 106] | 3.3 µM | > 250 µM | > 250 µM | 
12 | C[C@@H](NC(=O)N1C(=O)C[C@@H]1CSc1ccccc1)c1ccccc1 [Entry 212] | 4.4 µM | > 52 µM | 31 µM | 
13 | CC[C@@H](NC(=O)N1C(=O)C[C@@H]1CSc1nccc(C)n1)c1ccccc1 [Entry 124] | 4 µM | > 250 µM | > 250 µM | 
14 | CN(Cc1ccc(C(F)(F)F)cc1)C(=O)N1C(=O)C[C@@H]1CSc1ccncc1 [Entry 311] | 0.6 µM | > 250 µM | 250 µM | 
15 | CC[C@@H](NC(=O)N1C(=O)C[C@@H]1CSc1ccncc1)c1ccccc1 [Entry 107] | 2 µM | > 233 µM | 92 µM | 
16 | CN(C)C(=O)c1ccc(CN(C)C(=O)N2C(=O)C[C@@H]2CSc2ncccn2)cc1 [Entry 305] | 14 µM | > 250 µM | 210 µM | 
17 | O=C1C[C@H](CSc2ccccc2)N1C(=O)NCc1ccncc1 [Entry 201, 2-oxo-4(R)-(phenylsulfanylmethyl) azetidine-1-carboxylic acid (pyridin-4-ylmethyl)amide] | 7.9 µM | > 270 µM | 75 µM | 
18 | CC[C@@H](NC(=O)N1C(=O)C[C@@H]1CSc1ncccn1)c1ccccc1 [Entry 104, 2-oxo-4(R)-(pyrimidin-2-ylsulfanylmethyl)azetidine-1-carboxylic acid (1(R)-phenylpropyl)amide] | 2.8 µM | > 209 µM | 120 µM | 
19 | CN(Cc1ccc(C(=O)OCc2ccccc2)cc1)C(=O)N1C(=O)C[C@@H]1CSc1ncccn1 [Entry 304] | 2.5 µM | > 250 µM | 120 µM | 
20 | CC[C@@H](NC(=O)N1C(=O)C[C@@H]1COc1ccccc1)c1ccccc1 [Entry 130] | 5.2 µM | > 250 µM | 101 µM | 
21 | O=C(NC[C@H]1CC(=O)N1C(=O)NCc1ccccc1)c1ccccc1 [Entry 204] | 2.6 µM | > 250 µM | 120 µM | 
22 | CN(Cc1ccc(F)cc1)C(=O)N1C(=O)C[C@@H]1CSc1ncccn1 [Entry 313] | 8.3 µM | > 250 µM | 110 µM | 
23 | CCSC[C@H]1[C@H](C)C(=O)N1C(=O)N[C@H](CC)c1ccccc1 [Entry 120] | 4 µM |  |  | 

Row | SMILES | IC50 (HCMV NO protease) | CC50 [1] | EC50 [2, 3] | EC50 [2, 4]
24 | CC[C@@H](NC(=O)N1C(=O)[C@@H](C)[C@@H]1CSc1ncccn1)c1ccccc1 [Entry 111] | 0.65 µM | > 250 µM | 110 µM | 
25 | CC[C@@H](NC(=O)N1C(=O)[C@@H](C)[C@@H]1CSc1nccn1C)c1ccccc1 [Entry 116] | 1.9 µM | > 250 µM | 130 µM | 
26 | CN(Cc1ccco1)C(=O)N1C(=O)C[C@@H]1CSc1ncccn1 [Entry 303] | 17 µM |  |  | 
27 | CC[C@@H](NC(=O)N1C(=O)C[C@@H]1COC(=O)c1cccc2ccccc12)c1ccccc1 [Entry 134] | 0.46 µM | > 13 µM |  | 9 µM
28 | COC(=O)c1ccc(CN(C)C(=O)N2C(=O)C[C@@H]2CSc2nnnn2C)cc1 [Entry 309] | 1 µM | > 250 µM | 130 µM | 
29 | CC[C@@H](NC(=O)N1C(=O)C[C@@H]1CSc1nc(C)cc(C)n1)c1ccccc1 [Entry 105] | 4.6 µM | > 250 µM | 88 µM | 
30 | CC[C@@H](NC(=O)N1C(=O)C[C@@H]1CSc1nc2ccccc2o1)c1ccccc1 [Entry 141] | 0.8 µM | > 26 µM |  | 22 µM
31 | CC[C@@H](NC(=O)N1C(=O)C[C@@H]1CN(CC)CC)c1ccccc1 [Entry 210] | 48 µM |  |  | 
32 | Cn1nnnc1SC[C@H]1CC(=O)N1C(=O)N1CCCC1c1ccccc1[N+](=O)[O-] (some centres unmarked) [Entry 408] |  | > 133 µM | 100 µM | 
33 | O=C1C[C@H](CSc2ncccn2)N1C(=O)N1CCC[C@H]1c1ccccc1 [Entry 402, 1-(2(S)-phenyl-pyrrolidine-1-carbonyl)-4-(pyrimidin-2-ylsulfanylmethyl)azetidin-2-one] | 34 µM |  |  | 
34 | CC[C@@H](NC(=O)N1C(=O)[C@@H](C)[C@@H]1CSc1ccccc1)c1ccccc1 [Entry 113] | 1.6 µM |  |  | 
35 | O=C1C[C@H](C[S+]([O-])c2ccccc2)N1C(=O)NCc1ccccc1 (stereo partly drawn) [Entry 202, 4(R) -benzenesulfinylmethyl-2-oxoazetidine-1-carboxylic acid benzylamide] | 13 µM |  |  | 
36 | COC(=O)c1ccc(CN(C)C(=O)N2C(=O)C[C@@H]2CSc2nccn2C)cc1 [Entry 308] | 22 µM |  |  | 
37 | O=C1C[C@H](CS(=O)(=O)c2ccccc2)N1C(=O)NCc1ccccc1 [Entry 203, 2(R)-benzenesulfonylmethyl-4-oxoazetidine-1-carboxylic acid benzyl amide] | 24 µM |  |  | 
38 | CC[C@@H](NC(=O)N1C(=O)C[C@@H]1COc1cccc(CC(=O)O)c1)c1ccccc1 [Entry 136] | 0.1 µM |  |  | 
39 | COC(=O)c1ccc(CN(C)C(=O)N2C(=O)C[C@@H]2CSc2nc3ccccc3o2)cc1 [Entry 310] | 3.3 µM |  |  | 
40 | CN(CC1CCCCO1)C(=O)N1C(=O)C[C@@H]1CSc1ncccn1 (some centres unmarked) [Entry 315] | 28 µM |  |  | 
41 | O=C(OCc1ccccc1)C1CCCN1C(=O)N1C(=O)C[C@@H]1CSc1ncccn1 (some centres unmarked) [Entry 401] | 21 µM |  |  | 
42 | Cn1nnnc1SC[C@H]1CC(=O)N1C(=O)NC1CCc2ccccc21 (some centres unmarked) [Entry 211] |  | 188 µM | 140 µM | 
43 | CN(Cc1ccc([N+](=O)[O-])cc1)C(=O)N1C(=O)C[C@@H]1CSc1ncccn1 [Entry 322] |  | > 118 µM | > 118 µM | 
44 | CC[C@@H](NC(=O)N1C(=O)C[C@@H]1COc1cccc(CCC(=O)O)c1)c1ccccc1 [Entry 135] | 0.1 µM |  |  | 
45 | CC[C@@H](NC(=O)N1C(=O)[C@@H](C)[C@@H]1CSC(C)C)c1ccccc1 [Entry 110] | 5.6 µM |  |  | 
